Experimental data as given in patent publication US5360796A, “Imidazo[1,2-a]pyridinylalkyl phosphonic acid compounds for treatment of neurotoxic injury” (G. D. Searle & Co., priority 1991, dated 1994).
Structures can show the parent of a compound that is named as a salt. Where two headings read alike, the source gives them in different places.

Tests used:
[1] = target: NMDA receptor; assay: NMDA-Selective Glutamate Binding Assay (L-[3H]glutamate); parameters: species or system rat; settings: 12.5 nM L-[3H]glutamate, synaptic plasma membranes, read-out: NMDA Receptor Binding Data, Ki IC50 Binding NMDA
Protocol: (§1) Synaptic plasma membranes (SPM) were prepared as previously described [Monahah, J. B. and Michel, J., "Identification and Characterization of an N-methyl-D-aspartate-specific L[^3 H]glutamate Recognition Site in Synaptic Plasma Membranes, J. Neurochem., 48, 1699-1708 (1987)]. The SPM were stored at a concentration of 10-15 mg/ml in 0.32M sucrose, 0.5 mM EDTA, 1 mM MgSO4, 5 mM Tris/SO4, pH 7.4, under liquid nitrogen. The identity and purity of the subcellular fractions were confirmed by both electron microscopy and marker enzymes. Protein concentrations were determined by using a modification of the method of Lowry [Ohnishi, S. T. and Barr, J. K., "A Simplified Method of Quantitating Proteins using the Biuret and Phenol Reagents", Anal. Biochem., 86, 193-197 (1978)]. The SPM were treated identically for the [^3 H]AMPA (QUIS), [^3 H]kainate and sodium-dependent L-[^3 H]-glumatate binding assays. The SPM were thawed at room temperature, diluted twenty-fold with 50mM Tris/acetate, pH 7.4, incubated at 37° C. for 30 minutes, and centrifuged at 100,000 g for 15 minutes. The dilution, incubation, and centrifugation was repeated a total of three times. Prior to use in the NMDA-specific L-[^3 H]-glutamate binding assay the SPM were thawed, diluted twenty fold with 50 mM Tris/acetate, pH 7.4 containing 0.04% (v/v) Triton X-100, incubated for 30 minutes at 37° C. and centrifuged as described above. The Triton X-100 treated membranes were washed with 50 mM Tris/acetate, pH 7.4 and centrifuged at 100,000 g for 15 minutes a total of four times. […] The basic procedure for the receptor subclass binding assays was similar. This general method involved adding the radioligand (12.5 nM L-[^3 H] glutamate; 0.5 nM [^3 H]kainate or 10 nM [^3 H]AMPA) to the appropriate concentration of the test compound and initiating the assay by the addition of ice cold synaptic plasma membranes (0.2-0.45 mg). The binding assays were performed in 1.5 mL centrifuge tubes with the total volume adjusted to 1.0 mL. Additions of test compounds were made in 50 mM Tris/acetate, pH 7.4 and incubations were carried out at 0°-4° C. The incubation time for the NMDA and the AMPA binding assays was 10 minutes, for the kainate binding assay 60 minutes and for the sodium-dependent glutamate binding assay 15 minutes. The AMPA binding assay contained 100 mM KSCN and the sodium-dependent glutamate binding assay contained 150 mM sodium acetate in addition to the previously described reagents. To terminate the incubation, the samples were centrifuged for 15 minutes at 12,000 g and 4° C. in a Beckman Microfuge 12. The supernatant was aspirated and the pelleted membranes dissolved in Beckman BTS-450 tissue solubilizer for a minimum of 6 hours at room temperature. Beckman MP scintillation cocktail containing 7 mL/1 acetic acid was then added and the samples counted on a Beckman LS 5800 or 3801 liquid scintillation counter with automatic corrections for quenching and counting efficiency. Nonspecific binding was defined as the residual binding in the presence of either excess L-glutamate (0.1-0.4 mM), kainate (0.01 mM), or NMDA (0.5 mM), and was 15-25% of the total binding in the NMDA binding assay, 19-27% in the AMPA binding assay, 20-30% in the kainate binding assay and 10-15% in the sodium-dependent binding assay. Radioligand binding to the synaptic plasma membranes was analyzed using Scatchard and Hill transformations and the Ki values of the compounds determined using logit-log transformations. Calculations and regression analysis were performed using templates developed for Lotus 1, 2, 3 as previously described [Pullan, L. M. "Automated Radioligand Receptor Binding Analysis with Templates for Lotus", Computer Appln. Biosci., 3, 131 (1987)]. Binding results are reported in Table I for example compounds of the invention.

[2] = target: AMPA; assay: [3H]AMPA (QUIS) binding assay; parameters: species or system rat; settings: 10 nM [3H]AMPA, 100 mM KSCN, synaptic plasma membranes, pH 7.4, 0-4° C., 10 min; read-out: NMDA Receptor Binding Data, Ki IC50 Binding AMPA
Protocol: as §1

[3] = tested on: cGMP in cerebellum; assay: Assay for Effect on cGMP Levels in Cerebellum; assay type: in vivo, mouse (Swiss-Webster); settings: Mus musculus, sc, 0.5 h; 30 min prior to sacrifice; read-out: Decrease in cGMP ED50
Protocol: The purpose of this assay is to determine the extent of in vivo bioavailability and the potency as an NMDA antagonist of compound of the invention as compared to known NMDA antagonists, namely, 3(2-carboxypiperizine-4-yl)propyl-1-phosphonic acid (CPP) and cis-4-phosphonomethyl-2-piperidinecarboxylic acid (CGS 19755). Male Swiss-Webster mice (17-24 g were injected sub-cutaneously (s.c.) with compound of the invention and the known NMDA antagonist standards 30 minutes prior to sacrifice by focussed microwave irradiation. Groups consisted of 7-10 mice. Compounds of Ex. #7 was dissolved in isotonic saline and all compounds were administered in a volume of 0.2 ml per mouse. Cerebella samples were extracted in IN HCl. Hydrochloric acid in extracts of the cerebellum were freeze-dried for assay of cGMP with a commercial RIA kit (NEN). Statistics (Dunett's t-test) were performed as described previously [P. L. Wood et al., Neurochem., 19, 975-982 (1980)]. ED50 values were calculated from log-logit transformation of the dose-response data.

[4] = target: TCP (1-[1-(2-thienyl)cyclohexyl]piperidine) binding; assay: TCP Modulation Assay; parameters: species or system rat; settings: for Ki: 2 nM tritiated TCP, 0.05 mM L-glutamate, rat brain SPM, read-out: TCP Ki IC50
Protocol: The effect on the TCP (1-[1-(2-thienyl)cyclohexyl]piperidine) binding was measured in rat brain synaptic membranes (SPM) prepared as previously described [J. B. Monahah & J. Michel; J. Neurochem. […] Prior to their use in the binding assay, frozen SPM were thawed, diluted twenty fold with 50 mM Tris/acetate (pH 7.4 containing 0.04% (v/v) Triton X-100), incubated for 30 min. at 37° C. and centrifuged at 95,000 xg for 15 min. The Triton X-100 treated SPM were washed with 5 mM Tris/HCl, pH 7.4 and centrifuged a total of six times. […] The samples were filtered through glass fiber filters (Schleicher & Schuell #32) which have been pretreated with 0.05% (v/v) polyethylenimine, washed 4 times with 2 ml of ice-cold 5 mM Tris/HCl buffer, and then counted on a Beckman LS 5800 liquid scintillation counter with automatic corrections for quenching and counting efficiency. Inhibition of TCP binding was measured as a decrease in the binding in the presence of 0.05 mM L-glutamate. Non-specific binding was defined as the residual binding in the presence of […] phencyclidine.

[5] = tested on: NMDA; settings: D. E. Murphy et al, J. Pharmacol. Exp. Ther. 1987; cited from earlier work

Ki ([1]; pH 7.4, 0-4° C., 10 min) | Ki [2] | Compound | other results
> 100 µM | > 300 µM | O=C(O)c1cn2cc(CP(=O)(O)O)ccc2n1 [Example 13, 6-(phosphonomethyl)imidazo[1,2-a]pyridine-2-carboxylic acid] | 
4.5 µM | > 300 µM | O=C(O)c1cn2cccc(CP(=O)(O)O)c2n1 [Example 23, 8-(phosphonomethyl)imidazo[1,2-a]pyridine-2-carboxylic acid] | Ki ([1]; Second batch): 10.5 µM; Ki ([4]; pH 7.4, 25° C., 60 min): 14 µM; Ki ([4]; second batch): 7.7 µM
> 100 µM | > 300 µM | O=C(O)c1cn2ccc(CP(=O)(O)O)cc2n1 [Example 18, 7-(phosphonomethyl)imidazo[1,2-a]pyridine-2-carboxylic acid] | 
> 100 µM | > 300 µM | O=C(O)c1cn2c(CP(=O)(O)O)c(Cl)ccc2n1 [Example 30, 6-chloro-5-(phosphonomethyl)imidazo[1,2-a]pyridine-2-carboxylic acid] | 
5.8 µM | > 300 µM | O=C(O)c1cn2c(C(O)P(=O)(O)O)cccc2n1 (stereo not drawn) [Example 57, 5-(hydroxyphosphonomethyl)imidazo[1,2-a]pyridine-2-carboxylic acid, monohydrochloride] | TCP Binding Data (result in words) ([4]; no number given): Antag.

Continued, molecule first:

Compound | Ki ([1]; pH 7.4, 0-4° C., 10 min) | Ki [2] | other results
O=C(O)[C@H]1C[C@@H](CP(=O)(O)O)CCN1 (relative stereo) [CGS 19755, cis-4-phosphonomethyl-2-piperidinecarboxylic acid, reference compound] |  |  | ED50 [3]: 1 mg/kg
O=C(O)c1cn2c(P(=O)(O)O)cccc2n1 [Example 53, 5-phosphonoimidazo[1,2-a]pyridine-2-carboxylic acid] | > 10 µM |  | 
Cc1ccc(P(=O)(O)O)c2nc(C(=O)O)cn12 [Example 49, 5-methyl-8-phosphonoimidazo[1,2-a]pyridine-2-carboxylic acid] | > 10 µM |  | 
O=C(O)C1CN(CCCP(=O)(O)O)CCN1 (stereo not drawn) [CPP, 3-(2-carboxypiperazin-4-yl)propyl-1-phosphonic acid, reference compound] |  |  | NMDA antagonism (in words) [5]: potent and selective NMDA antagonist; ED50 [3]: 7.4 mg/kg
Cc1c(C(=O)O)nc2c(CP(=O)(O)O)cccn12 [Example 67, 3-methyl-8-(phosphonomethyl)imidazo[1,2-a]pyridine-2-carboxylic acid, monohydrochloride] | > 100 µM | > 300 µM | 
